For 22 compounds, IC50 results are on record in patent publication US8278465B2, “Coumarin derivative having antitumor activity” (Chugai Seiyaku Kabushiki Kaisha, priority 2006, dated 2012).

For the assay, the system named is human colon cancer cell line HCT116. The assay can be described thus: Measurement of cell proliferation inhibitory activity (Cell Counting Kit-8). It is filed as cell-based. The note with it: HCT116, 4 days incubation, read-out: IC50 (50% proliferation inhibitory concentration). Here is the method:
The cell proliferation inhibitory activities of the compounds and salts shown in Tables 1-1, 1-2 and Table 2 were measured as follows, using the human colon cancer cell line HCT116 (American Type Culture Collection, VA, USA). 2000 to 3000 cells per well of the human colon cancer cell line HCT116 was placed in a 96-well culture plate, a predetermined concentration (0.00038 μM, 0.00076 μM, 0.0015 μM, 0.0031 μM, 0.0061 μM, 0.012 μM, 0.024 μM, 0.049 μM, 0.098 μM, 0.195 μM, 0.39 μM, 0.78 μM, 1.56 μM, 3.13 μM, 6.25 μM, 12.5 μM, 25 μM or 50 μM) of the test substance was added thereto, and the mixture was then incubated at 37° C. under 5% CO2 environment for 4 days. On day 4 of incubation, the Cell Counting Kit-8 solution (Dojindo Laboratories) was added, the absorbance (measurement wavelength: 450 nm; reference wavelength: 615 nm) was measured following the protocol attached to the kit, and the 50% proliferation inhibitory concentration (IC50) was calculated.

Where [1] appears, read: Homo sapiens, HCT-116, 96 h, Table 1-1.
[2] abbreviates: Homo sapiens, HCT-116, 96 h, Table 1-2.

Read-outs that look alike come from different tables or passages of the source.

As for `Cc1c(Cc2cccc(NS(=O)(=O)CC(=O)N(C)C)c2)c(=O)oc2cc(OC(=O)N(C)C)c(Cl)cc12` [Compound 1o-1-3-3, Dimethylcarbamic acid 3-(3-dimethylcarbamoylmethanesulfonylamino-benzyl)-6-chloro-4-methyl-2-oxo-2H-1-benzopyran-7-yl ester], under setting [1], the IC50 is 16 nM.
With `CNS(=O)(=O)Nc1cccc(Cc2c(C)c3ccc(Oc4nccs4)cc3oc2=O)c1F` [Compound 1j-3-4-2, 3-{2-Fluoro-3-(methylaminosulfonyl)aminobenzyl}-4-methyl-7-(thiazol-2-yloxy)-2-oxo-2H-1-benzopyran], under setting [2], the IC50 was 10.9 nM.
Take `Cc1c(Cc2cccc(NS(N)(=O)=O)c2)c(=O)oc2cc(OC(=O)N(C)C)c(I)cc12` [Compound 1j-1-7-1, Dimethylcarbamic acid 3-{3-(aminosulfonyl)aminobenzyl}-6-iodo-4-methyl-2-oxo-2H-1-benzopyran-7-yl ester]: under setting [1], the IC50 was 11.4 nM.
As for `CNS(=O)(=O)Nc1nccc(Cc2c(C)c3cc(C)c(Oc4nccs4)cc3oc2=O)c1F` [Compound 1j-3-19-2, 3-{2-(Methylaminosulfonyl)amino-3-fluoropyridin-4-ylmethyl}-4-methyl-6-methyl-7-(thiazol-2-yloxy)-2-oxo-2H-1-benzopyran], the IC50 under setting [2] was 1.5 nM.
Still for that read-out and setting: the result for `CNS(=O)(=O)Nc1cc(Cc2c(C)c3cc(F)c(OC(=O)N(C)C)cc3oc2=O)ccn1` [Compound 1j-1-11-2, Dimethylcarbamic acid 4-methyl-3-{2-(methylaminosulfonyl)aminopyridin-4-ylmethyl}-6-fluoro-2-oxo-2H-1-benzopyran-7-yl ester] reads 18.3 nM; that for `CNS(=O)(=O)Nc1cc(Cc2c(C)c3cc(C)c(Oc4nccs4)cc3oc2=O)ccn1` [Compound 1j-3-20-2, 3-{2-(Methylaminosulfonyl)aminopyridin-4-ylmethyl}-4-methyl-6-methyl-7-(thiazol-2-yloxy)-2-oxo-2H-1-benzopyran], 8.9 nM; that for `CNS(=O)(=O)Nc1nccc(Cc2c(C)c3cc(F)c(Oc4ncccn4)cc3oc2=O)c1F` [Compound 1j-2-17-2, 3-{2-(methylaminosulfonyl)amino-3-fluoropyridin-4-ylmethyl}-4-methyl-6-fluoro-7-(pyrimidin-2-yloxy)-2-oxo-2H-1-benzopyran], 21.1 nM.
As to `CNS(=O)(=O)Nc1cccc(Cc2c(C)c3cc(I)c(OC(=O)N(C)C)cc3oc2=O)c1` [Compound 1j-1-7-2, Dimethylcarbamic acid 6-iodo-4-methyl-3-{3-(methylaminosulfonyl)aminobenzyl}-2-oxo-2H-1-benzopyran-7-yl ester], under setting [1], the IC50 was found to be 7.9 nM.
On the same count and under the same terms, for `Cc1c(Cc2cccc(NS(N)(=O)=O)c2F)c(=O)oc2cc(OC(=O)N(C)C)c(F)cc12` [Compound 1j-1-5-1, Dimethylcarbamic acid 3-{2-fluoro-3-(aminosulfonyl)aminobenzyl}-6-fluoro-4-methyl-2-oxo-2H-1-benzopyran-7-yl ester] the value was 8.3 nM; for `CNS(=O)(=O)Nc1cccc(Cc2c(C)c3ccc(OC(=O)N(C)C)cc3oc2=O)c1F` [Compound 1j-1-4-2, Dimethylcarbamic acid 3-(3-methylaminosulfonylamino-2-fluorobenzyl)-4-methyl-2-oxo-2H-1-benzopyran-7-yl ester], 9.3 nM.
`CNS(=O)(=O)Nc1nccc(Cc2c(C)c3cc(Cl)c(Oc4ncccn4)cc3oc2=O)c1F` [Compound 1j-2-18-2, 3-{2-(Methylaminosulfonyl)amino-3-fluoropyridin-4-ylmethyl}-4-methyl-6-chloro-7-(pyrimidin-2-yloxy)-2-oxo-2H-1-benzopyran]: the IC50 under setting [2] is 5.9 nM.
Same read-out and setting: for `CNS(=O)(=O)Nc1cc(Cc2c(C)c3ccc(OC(=O)N(C)C)cc3oc2=O)ccn1` [Compound 1j-1-10-2, Dimethylcarbamic acid 4-methyl-3-{2-(methylaminosulfonyl)aminopyridin-4-ylmethyl}-2-oxo-2H-1-benzopyran-7-yl ester] the value was 31.9 nM.
As for `CNS(=O)(=O)Nc1cccc(Cc2c(C)c3cc(C)c(OC(=O)N(C)C)cc3oc2=O)c1` [Compound 1j-1-8-2, Dimethylcarbamic acid 6-methyl-4-methyl-3-{3-(methylaminosulfonyl)aminobenzyl}-2-oxo-2H-1-benzopyran-7-yl ester], the IC50 under setting [1] came out at 21.7 nM.
On the same count and under the same terms, the result for `CNC(=O)CS(=O)(=O)Nc1cccc(Cc2c(C)c3cc(Cl)c(OC(=O)N(C)C)cc3oc2=O)c1` [Compound 1o-1-3-2, Dimethylcarbamic acid 3-(3-methylcarbamoylmethanesulfonylamino-benzyl)-6-chloro-4-methyl-2-oxo-2H-1-benzopyran-7-yl ester] reads 21 nM.
Same read-out and setting: for `CNS(=O)(=O)Nc1cccc(Cc2c(CF)c3ccc(OC(=O)N(C)C)cc3oc2=O)c1F` [Compound 1j-1-4-2F, Dimethylcarbamic acid 3-(3-methylaminosulfonylamino-2-fluorobenzyl)-4-fluoromethyl-2-oxo-2H-1-benzopyran-7-yl ester] the value was 10.6 nM.
`CNS(=O)(=O)Nc1nccc(Cc2c(C)c3cc(C)c(Oc4ncccn4)cc3oc2=O)c1F` [Compound 1j-2-19-2, 3-{2-(Methylaminosulfonyl)amino-3-fluoropyridin-4-ylmethyl}-4-methyl-6-methyl-7-(pyrimidin-2-yloxy)-2-oxo-2H-1-benzopyran]: the IC50 under setting [2] was 17.8 nM.
For `CNS(=O)(=O)Nc1cc(Cc2c(C)c3cc(Cl)c(Oc4nccs4)cc3oc2=O)ccn1` [Compound 1j-3-12-2, 3-{2-(Methylaminosulfonyl)aminopyridin-4-ylmethyl}-4-methyl-6-chloro-7-(thiazol-2-yloxy)-2-oxo-2H-1-benzopyran], under setting [2], the IC50 was 12.2 nM.
`CNS(=O)(=O)Nc1cccc(Cc2c(CF)c3cc(Cl)c(OC(=O)N(C)C)cc3oc2=O)c1` [Compound 1j-1-3-2F, Dimethylcarbamic acid 6-chloro-4-fluoromethyl-3-{3-(methylaminosulfonyl)aminobenzyl}-2-oxo-2H-1-benzopyran-7-yl ester]: the IC50 under setting [1] worked out at 19.5 nM.
For `Cc1c(Cc2ccccc2)c(=O)oc2cc(OC(=O)N(C)C)c(Cl)cc12` [Comp. 2, dimethylcarbamic acid 2-oxo-2H-3-benzyl-4-methyl-6-chloro-1-benzopyran-7-yl ester, reference compound], the IC50 (Table 1-2) was 1300 nM.
With `CNS(=O)(=O)Nc1cccc(Cc2c(C)c3cc(F)c(OC(=O)N(C)C)cc3oc2=O)c1F` [Compound 1j-1-5-2, Dimethylcarbamic acid 6-fluoro-4-methyl-3-{2-fluoro-3-(methylaminosulfonyl)aminobenzyl}-2-oxo-2H-1-benzopyran-7-yl ester], under setting [1], the IC50 worked out at 2.9 nM.
`Cc1c(Cc2cccc(NS(N)(=O)=O)c2F)c(=O)oc2cc(Oc3nccs3)ccc12` [Compound 1j-3-4-1, 3-{2-Fluoro-3-(aminosulfonyl)aminobenzyl}-4-methyl-7-(thiazol-2-yloxy)-2-oxo-2H-1-benzopyran]: the IC50 under setting [2] is 22.5 nM.
On the same count and under the same terms, the result for `CNS(=O)(=O)Nc1cc(Cc2c(C)c3cc(Cl)c(OC(=O)N(C)C)cc3oc2=O)ccn1` [Compound 1j-1-12-2, Dimethylcarbamic acid 4-methyl-3-{2-(methylaminosulfonyl)aminopyridin-4-ylmethyl}-6-chloro-2-oxo-2H-1-benzopyran-7-yl ester] reads 6.4 nM.
